Measurements reported in patent publication US20220033360A1, “OPHTHALMIC COMPOSITIONS AND METHODS FOR THE TREATMENT OF SKIN DISEASES AND EYE DISEASES” (Cellix Bio Private Limited, priority 2018, published 2022).
Where two headings read alike, the source gives them in different places.

Assays:
[1] = Oxidative capacity of UCP (oxidation of methionine to methionine sulfoxide), cell-free; settings: 0.1 to 10 mM, preincubation 60 min, methionine sulfoxide formation
Procedure: The influence of CLX-162C-C01 on the oxidative capacity of UCP was studied by preincubating UCP (2 mg/ml H2O) with various concentrations of CLX-162C-C01 (0.1, 1, and 10 mM) for 60 min at room temperature in parallel with the controls. To assay the oxidative capacity of UCP, aliquots of 50 microlit (100 microgm UCP) of particle suspension taken from the preincubations were suspended in 1 ml H2O and incubated in the presence of 100 microM methionine for 2 h at 25° C. Formation of methionine sulfoxide was measured fluorometrically after precolumn derivatization with o-phthaldialdehyde and HPLC. […] The oxidative potential of the particles was subsequently determined by their capacity to oxidize […] sulfoxide. […] CLX-162C-C01 antioxidative potency to prevent the oxidation of methionine by agglomerates of ultrafine carbon particles (UCPs). Particulate stimulants such as UCP and zymosan activate lipid mediator synthesis and to induce oxidative stress in macrophages.

[2] = system: 5-LO; experiment: Lipoxygenase inhibitor screening assay, cell-free, 5-LO with linoleic acid as substrate; type: biochemical
Procedure: (§1) CLX-162C-C01 in concentrations ranging from 0.001 to 1.2 mM was added to 5-LO or 15-LO in the screening assay buffer, respectively, and the LO inhibitor screening assay was immediately started by addition of the corresponding substrates and running for 5 min. The inhibitory capacity of CLX-162C-C01 against lipoxygenases was studied in a cell-free system consisting of CLX-162C-C01 and 5-LO or 15-LO together with appropriate substrates, respectively.

[3] = biological target: human 5-HT2B receptors (Homo sapiens, UniProt P41595); experiment: 5-HT2B agonist assay, intracellular calcium (Fluo-3, FLIPR) in HEK-293 cells; type: cell-based; settings: HEK-293 cells expressing human 5-HT2B
Procedure: 5-HT2B receptors stably expressing HEK-293 cells were maintained in Dulbecco's modified Eagle's medium (DMEM) supplemented with 10% fetal bovine serum and 250 microgm·mL-1 G-418. HEK-293 cells expressing human 5-HT2B receptors were seeded in […] poly-D-lysine coated plates at a density of 50,000 cells·well-1 in DMEM containing 10% (v.v-1) dialyzed fetal bovine serum and 250 microgm·mL-1 G-418. After overnight incubation, the cells were washed three times with Hank's buffered saline solution containing 2 mM CaCl2), 10 mM HEPES and 2.5 mM probenecid. The cells were incubated with 2 microM Fluo-3 AM in Hank's buffered saline solution for 60 min at 37 C. The Fluo-3 loaded cells were then washed four times with Hank's buffered saline solution. Agonist-induced changes in intracellular calcium concentrations were determined at room temperature using a Fluorometric Imaging Plate Reader.

[4] = system: 15-LO; experiment: Lipoxygenase inhibitor screening assay, cell-free, 15-LO with arachidonic acid as substrate; type: biochemical; settings: concentrations from 0.32 to 0.93 mM
Procedure: as §1

Sequence of human 5-HT2B receptors (P41595 whole entry): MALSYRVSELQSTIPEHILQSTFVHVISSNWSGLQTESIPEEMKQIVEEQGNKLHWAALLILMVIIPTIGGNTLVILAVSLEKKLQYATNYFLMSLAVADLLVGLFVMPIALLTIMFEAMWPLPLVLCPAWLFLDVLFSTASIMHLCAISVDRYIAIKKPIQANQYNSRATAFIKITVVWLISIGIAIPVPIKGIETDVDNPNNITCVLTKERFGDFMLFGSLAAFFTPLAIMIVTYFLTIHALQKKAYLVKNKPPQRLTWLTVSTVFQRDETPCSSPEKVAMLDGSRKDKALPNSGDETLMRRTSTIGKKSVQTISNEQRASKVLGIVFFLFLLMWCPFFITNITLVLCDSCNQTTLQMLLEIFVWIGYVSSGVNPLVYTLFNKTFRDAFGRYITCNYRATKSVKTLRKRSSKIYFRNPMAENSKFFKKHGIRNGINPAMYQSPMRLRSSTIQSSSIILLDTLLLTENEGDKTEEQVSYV

IC50 ([2]; linoleic acid substrate, 5 min, read-out: 50% inhibition of 5-LO): 320000 nM
EC50 ([3]; read-out: EC50, 5-HT2B agonist effect): 14.2 nM
EC50 ([3]; read-out: pEC50 (-log EC50), 5-HT2B agonist effect (converted)): 490 nM
SMILES: Cc1cc(C(C)(C)C)c(O)c(C)c1CC1=NCCN1 [CLX-162C-C01, 2-(4-(tert-butyl)-3-hydroxy-2,6-dimethylbenzyl)-4,5-dihydro-1Himidazol-1-ium (R)-5-(1,2-dithiolan-3-yl) pentanoate]
effect on oxidative capacity of UCP [1]: did not reduce
inhibition of the activity of 5-LO ([2]; concentrations from 0.32 to 0.93 mM): strongly inhibited
inhibition of the activity of 15-LO [4]: only marginally affected
